Source: patent US11834450B2, “Compounds having ((3-nitrophenyl)sulfonyl)acetamide as BCL-2 inhibitors” (Eil Therapeutics, Inc., priority 2021, dated 2023)
Read-outs that look alike come from different tables or passages of the source.

Legend:
BCL-2 = target: T1, BCL-2 (Homo sapiens, UniProt P10415); assay: BCL-2 TR-FRET Assay (primary PPI inhibition); type: binding; settings: 60 min incubation; read-out: BCL2 (IC50 code, BCL-2 TR-FRET)
T1 construct: purchased BPS Bioscience #50222

BCL-XL = target: T2, BCL-XL (Homo sapiens, UniProt Q07817); assay: BCL-XL TR-FRET Assay (primary PPI inhibition); type: binding; settings: 60 min incubation; read-out: BCLxL (IC50 code, BCL-XL TR-FRET)
T2 construct: purchased BPS Bioscience #50223
T2 sequence (Q07817 whole entry): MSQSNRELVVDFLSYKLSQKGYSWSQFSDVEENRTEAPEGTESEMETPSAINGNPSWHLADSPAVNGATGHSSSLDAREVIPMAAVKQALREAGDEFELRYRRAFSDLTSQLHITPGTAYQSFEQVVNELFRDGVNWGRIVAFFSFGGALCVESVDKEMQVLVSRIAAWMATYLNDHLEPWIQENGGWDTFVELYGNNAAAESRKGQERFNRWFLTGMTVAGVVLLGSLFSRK
Experimental: BCL-XL TR-FRET Assay (BPS Bioscience, #50223) Assay Condition: The following assay concentrations and times were used: 10.5 ng BCL-XL, 5 ul of 1:100 anti-His Tb-labeled donor, 5 ul of 1:100 Dye-labeled acceptor, 5 ul of 1:80 BCL-XL Peptide Ligand, and 2 ul of test compound, with 60 min incubation time. The results of the assay were read using a Clariostar (BMG Labtech) plate reader with the following parameters: TR FRET, 340 ex/620 and 665 em; 60 μsec Delay; and 500 μsec integration.

RS4-11 cells = assay: Cell viability assay RS4-11 (CellTiter-Glo); type: cell-based; settings: Homo sapiens, read-out: RS4-11 (CC50 code)
Experimental: (§1) Assay Condition: Used culture medium for HEK293-DMEM (PanEco, Cat #C420), for the rest of the cell lines—culture medium RPMI-1640 (PanEco, Cat #C363).
(§2) Assay Procedure: Compounds were prepared as 200× stocks with serial dilution in 100% DMSO with a final concentration of 1×. Dispersed 40 μl in 384-well plates at a concentration of 2000 cells per well for HEK293 and at a concentration of 4000 cells per well for the rest of the cell lines using a robotic station Biomek (Beckman). Before adding compounds, the cells were incubated at 37° C. (HEK293 were incubated for a day before adding compounds).
(§3) A dilution plate was prepared by pouring 78 μl of the appropriate culture medium using a robotic station Biomek (Beckman). Sequentially, using a robotic station, 2 μl of substances were taken and added to 78 μl of culture medium (dilution of compounds 40×). Took from there 10 μl and added to the plates to the cells (dilution of compounds 5×). The plates were incubated for 3 days at a temperature 37° C. After 3 days, 10 μl of CellTiter-Glo (Promega) was added to the cells and the luminescence was measured.

MOLT-4 cells = assay: Cell viability assay MOLT-4 (CellTiter-Glo); type: cell-based; settings: Homo sapiens, read-out: MOLT-4 (CC50 code)
Experimental: as §1, §2, §3

[1] = Cell viability assay HEK293 (CellTiter-Glo); type: cell-based; settings: human, HEK293 cells, read-out: HEK293 (CC50 code)
Experimental: as §1, §2, §3

[2] = 72 h, RS4-11 cells, 3 days, CellTiter-Glo
[3] = 72 h, MOLT-4 cells, 3 days, CellTiter-Glo

T1 sequence (P10415 whole entry): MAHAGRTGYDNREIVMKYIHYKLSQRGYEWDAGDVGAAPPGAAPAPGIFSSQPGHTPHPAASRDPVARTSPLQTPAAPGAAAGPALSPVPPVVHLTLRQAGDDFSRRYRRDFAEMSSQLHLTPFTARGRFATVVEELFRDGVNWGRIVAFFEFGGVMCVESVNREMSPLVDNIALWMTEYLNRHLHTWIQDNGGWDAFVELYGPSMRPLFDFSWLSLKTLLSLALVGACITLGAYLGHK

| SMILES | IC50 (BCL-2) [µM] | IC50 (BCL-XL) [µM] | CC50 (RS4-11 cells; [2]) [µM] | CC50 (MOLT-4 cells; [3]) [µM] | CC50 at 3 days [1] [µM] | CC50 (RS4-11 cells; RS4-11, 72 h) [µM] | CC50 (MOLT-4 cells; MOLT-4, 72 h) [µM] |
| --- | --- | --- | --- | --- | --- | --- | --- |
| O=C(NS(=O)(=O)c1ccc(NCCCN2CCOCC2)c([N+](=O)[O-])c1)c1ccc(N2CCC(CN3CCCCC3c3ccc(Cl)cc3)CC2)cc1Oc1cnc2[nH]ccc2c1 (centres unmarked) [Compound 73, 4-[4-[[2-(4-chlorophenyl)-1-piperidyl]methyl]-1-piperidyl]-N [4-(3-morpholinopropylamino)-3-nitro-phenyl]sulfonyl-2-(1H-pyrrolo[2,3-b]pyridin-5-yloxy)benzamide] | 0.01 to 0.05 | 2 to 4 | > 0.2 | 2 to 10 | 10 to 25 |  |  |
| O=C(NS(=O)(=O)c1ccc(NCC2CCOCC2)c([N+](=O)[O-])c1)c1ccc(N2CCC(CN3CCCCC3c3ccc(Cl)cc3)CC2)cc1Oc1cccc(F)c1 (centres unmarked) [Compound 62, 4-[4-[[2-(4-chlorophenyl)-1-piperidyl]methyl]-1-piperidyl]-2-(3-fluorophenoxy)-N-[3-nitro-4-(tetrahydropyran-4-ylmethylamino)phenyl]sulfonyl-benzamide] | > 0.05 | ≤ 2 | > 0.2 | 2 to 10 | 10 to 25 |  |  |
| O=C(NS(=O)(=O)c1ccc(NCC2CCOCC2)c([N+](=O)[O-])c1)c1ccc(N2CCC(CN3C(=O)C4(CCCC4)C3c3ccc(Cl)cc3)CC2)cc1Oc1ccc2[nH]ccc2c1 (centres unmarked) [Compound 10, 4-[4-[[1-(4-chlorophenyl)-3-oxo-2-azaspiro[3.4]octan-2-yl]methyl]-1-piperidyl]-2-(1H-indol-5-yloxy)-N-[3-nitro-4-(tetrahydropyran-4-ylmethylamino)phenyl]sulfonyl-benzamide] | > 0.05 |  |  |  | ≤ 10 | > 0.2 | > 10 |
| O=C(NS(=O)(=O)c1ccc(NCC2CCOCC2)c([N+](=O)[O-])c1)c1ccc(N2CCN(C[C@@H]3CC(F)(F)CN3c3ccc(Cl)cc3)CC2)cc1Oc1cnc2[nH]ccc2c1 [Compound 81, 4-[4-[[(2S)-1-(4-chlorophenyl)-4,4-difluoro-pyrrolidin-2-yl]methyl]piperazin-1-yl]-N-[3-nitro-4-(tetrahydropyran-4-ylmethylamino)phenyl]sulfonyl-2-(1H-pyrrolo[2,3-b]pyridin-5-yloxy)benzamide] |  |  | > 0.2 | 2 to 10 | 10 to 25 |  |  |
| CC1=CC[C@@H](c2ccc(Cl)cc2)[C@H](CN2CCN(c3ccc(C(=O)NS(=O)(=O)c4ccc(NCC5CCOCC5)c([N+](=O)[O-])c4)c(Oc4cnc5[nH]ccc5c4)c3)CC2)C1 [Compound 60, 4-[4-[[(1R,6R)-6-(4-chlorophenyl)-3-methyl-cyclohex-3-en-1-yl]methyl]piperazin-1-yl]-N-[3-nitro-4-(tetrahydropyran-4-ylmethylamino)phenyl]sulfonyl-2-(1H-pyrrolo[2,3-b]pyridin-5-yloxy)benzamide] | > 0.05 | > 4 |  |  |  |  |  |
| CCCC(c1ccc(Br)cc1)N1CCN(c2ccc(C(=O)NS(=O)(=O)c3ccc(NCC4CCOCC4)c([N+](=O)[O-])c3)c(Oc3ccc4[nH]ccc4c3)c2)CC1 (centres unmarked) [Compound 15, 4-[4-[1-(4-bromophenyl)butyl]piperazin-1-yl]-2-(1H-indol-5-yloxy)-N-[3-nitro-4-(tetrahydropyran-4-ylmethylamino)phenyl]sulfonyl-benzamide] | > 0.05 | > 4 |  |  |  |  |  |

The next lines start with results.

| IC50 (BCL-2) [µM] | IC50 (BCL-XL) [µM] | SMILES | CC50 (RS4-11 cells; [2]) [µM] | CC50 (MOLT-4 cells; [3]) [µM] | CC50 at 3 days [1] [µM] | CC50 (RS4-11 cells; RS4-11, 72 h) [µM] | CC50 (MOLT-4 cells; MOLT-4, 72 h) [µM] |
| --- | --- | --- | --- | --- | --- | --- | --- |
| > 0.05 | > 4 | O=C1CC[C@H](CN2CCN(c3ccc(C(=O)NS(=O)(=O)c4ccc(NCC5CCOCC5)c([N+](=O)[O-])c4)c(Oc4cnc5[nH]ccc5c4)c3)CC2)[C@@H](c2ccc(Cl)cc2)N1 [Compound 70, 4-[4-[[(2S,3R)-2-(4-chlorophenyl)-6-oxo-3-piperidyl]methyl]piperazin-1-yl]-N-[3-nitro-4-(tetrahydropyran-4-ylmethylamino)phenyl]sulfonyl-2-(1H-pyrrolo[2,3-b]pyridin-5-yloxy)benzamide] | > 0.2 | > 10 | 10 to 25 |  |  |
| > 0.05 | > 4 | O=C1CC[C@]2(c3ccc(Cl)cc3)C[C@@]2(CN2CCN(c3ccc(C(=O)NS(=O)(=O)c4ccc(NCC5CCOCC5)c([N+](=O)[O-])c4)c(Oc4cnc5[nH]ccc5c4)c3)CC2)C1 [Compound 77, 4-[4-[[(1R,6R)-6-(4-chlorophenyl)-3-oxo-norcaran-1-yl]methyl]piperazin-1-yl]-N-[3-nitro-4-(tetrahydropyran-4-ylmethylamino)phenyl]sulfonyl-2-(1H-pyrrolo[2,3-b]pyridin-5-yloxy)benzamide] | > 0.2 | 2 to 10 | 10 to 25 |  |  |
| > 0.05 | > 4 | O=C(NS(=O)(=O)c1ccc(NCC2CCOCC2)c([N+](=O)[O-])c1)c1ccc(N2CCN(C(c3ccccc3)c3ccccc3)CC2)cc1Oc1ccc2[nH]ccc2c1 [Compound 19, 4-(4-benzhydrylpiperazin-1-yl)-2-(1H-indol-5-yloxy)-N-[3-nitro-4-(tetrahydropyran-4-ylmethylamino)phenyl]sulfonyl-benzamide] | > 0.2 | > 10 | > 25 |  |  |
| > 0.05 | > 4 | O=C(NS(=O)(=O)c1ccc(NCC2CCOCC2)c([N+](=O)[O-])c1)c1ccc(N2CCN(C(c3ccccc3)c3ccccc3)CC2)cc1Oc1cnc2[nH]ccc2c1 [Compound 17, 4-(4-benzhydrylpiperazin-1-yl)-N-[3-nitro-4-(tetrahydropyran-4-ylmethylamino)phenyl]sulfonyl-2-(1H-pyrrolo[2,3-b]pyridin-5-yloxy)benzamide] | > 0.2 | > 10 | > 25 |  |  |
| > 0.05 | > 4 | O=C(NS(=O)(=O)c1ccc(NCC2CCOCC2)c([N+](=O)[O-])c1)c1ccc(N2CCN(C(c3ccccc3)c3ccc(F)cc3)CC2)cc1Oc1ccc2[nH]ccc2c1 (centres unmarked) [Compound 12, 4-[4-[(4-fluorophenyl)-phenyl-methyl]piperazin-1-yl]-2-(1H-indol-5-yloxy)-N-[3-nitro-4-(tetrahydropyran-4-ylmethylamino)phenyl]sulfonyl-benzamide] | > 0.2 | > 10 | > 25 |  |  |
| > 0.05 | > 4 | O=C(NS(=O)(=O)c1ccc(NCC2CCOCC2)c([N+](=O)[O-])c1)c1ccc(N2CCN(C[C@@H]3CC(F)CN3c3ccc(Cl)cc3)CC2)cc1Oc1cnc2[nH]ccc2c1 (stereo partly drawn) [Compound 66, 4-[4-[[(2S)-1-(4-chlorophenyl)-4-fluoro-pyrrolidin-2-yl]methyl]piperazin-1-yl]-N-[3-nitro-4-(tetrahydropyran-4-ylmethylamino)phenyl]sulfonyl-2-(1H-pyrrolo[2,3-b]pyridin-5-yloxy)benzamide] | > 0.2 | 2 to 10 | 10 to 25 |  |  |
| > 0.05 |  | O=C(NS(=O)(=O)c1ccc(NCC2CCOCC2)c([N+](=O)[O-])c1)c1ccc(N2CCN(C(c3ccccc3)c3ccc(Cl)cc3)CC2)cc1Oc1ccc2[nH]ccc2c1 (centres unmarked) [Compound 14, 4-[4-[(4-chlorophenyl)-phenyl-methyl]piperazin-1-yl]-2-(1H-indol-5-yloxy)-N-[3-nitro-4-(tetrahydropyran-4-ylmethylamino)phenyl]sulfonyl-benzamide] |  |  |  |  |  |
| 0.01 to 0.05 | > 4 | CC1=CC[C@@H](CN2CCN(c3ccc(C(=O)NS(=O)(=O)c4ccc(NCC5CCOCC5)c([N+](=O)[O-])c4)c(Oc4cnc5[nH]ccc5c4)c3)CC2)[C@@H](c2ccc(Cl)cc2)C1 [Compound 71, 4-[4-[[(1R,6S)-6-(4-chlorophenyl)-4-methyl-cyclohex-3-en-1-yl]methyl]piperazin-1-yl]-N-[3-nitro-4-(tetrahydropyran-4-ylmethylamino)phenyl]sulfonyl-2-(1H-pyrrolo[2,3-b]pyridin-5-yloxy)benzamide] |  |  |  |  |  |
| 0.01 to 0.05 | 2 to 4 | O=C(NS(=O)(=O)c1ccc(NCC2CCOCC2)c([N+](=O)[O-])c1)c1ccc(N2CCN(C[C@H]3Cc4ccccc4CN3C(=O)c3cccs3)CC2)cc1Oc1cnc2[nH]ccc2c1 [Compound 34, N-[3-nitro-4-(tetrahydropyran-4-ylmethylamino)phenyl]sulfonyl-2-(1H-pyrrolo[2,3-b]pyridin-5-yloxy)-4-[4-[[(3R)-2-(thiophene-2-carbonyl)-3,4-dihydro-1H-isoquinolin-3-yl]methyl]piperazin-1-yl]benzamide] |  |  |  |  |  |
